Assay [1] concerns the target T1, androgen receptor (AR) (Homo sapiens, UniProt P10275, T878A).
T1 construct: endogenous in cells; host or cells: LNCaP
T1 sequence (P10275 1-920 T878A): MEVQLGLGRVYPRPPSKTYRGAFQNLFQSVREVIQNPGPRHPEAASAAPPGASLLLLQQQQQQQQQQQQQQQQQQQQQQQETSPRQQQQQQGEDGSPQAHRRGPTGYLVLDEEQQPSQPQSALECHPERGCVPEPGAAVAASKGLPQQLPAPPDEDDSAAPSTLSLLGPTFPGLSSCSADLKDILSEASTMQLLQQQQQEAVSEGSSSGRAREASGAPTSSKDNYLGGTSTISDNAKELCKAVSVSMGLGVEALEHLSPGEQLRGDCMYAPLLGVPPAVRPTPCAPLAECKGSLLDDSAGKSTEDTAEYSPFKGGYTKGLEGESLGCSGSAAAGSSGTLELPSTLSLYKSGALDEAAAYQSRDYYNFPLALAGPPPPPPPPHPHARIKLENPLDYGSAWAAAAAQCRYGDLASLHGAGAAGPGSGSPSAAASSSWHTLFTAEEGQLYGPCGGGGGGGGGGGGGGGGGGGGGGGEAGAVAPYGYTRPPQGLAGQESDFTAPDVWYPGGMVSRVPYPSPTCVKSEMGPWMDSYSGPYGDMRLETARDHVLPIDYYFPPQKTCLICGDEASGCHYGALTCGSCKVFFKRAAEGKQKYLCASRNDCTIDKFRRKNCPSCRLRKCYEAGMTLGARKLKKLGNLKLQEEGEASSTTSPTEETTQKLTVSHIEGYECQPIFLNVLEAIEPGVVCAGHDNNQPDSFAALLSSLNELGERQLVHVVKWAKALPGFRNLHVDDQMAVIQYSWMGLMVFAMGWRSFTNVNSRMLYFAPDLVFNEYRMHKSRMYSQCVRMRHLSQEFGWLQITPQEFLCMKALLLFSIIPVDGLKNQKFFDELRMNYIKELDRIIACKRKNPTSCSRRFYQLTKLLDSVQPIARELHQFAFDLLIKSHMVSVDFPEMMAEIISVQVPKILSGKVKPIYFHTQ
Briefly: Specificity Western blot in LNCaP cell lysates, AR. The assay is classed as cell-based. The following applies: 1 or 5 micromolar, 24 hours, presence or absence of DHT. The procedure:
Human prostate cancer LNCaP cells and T47D cells were plated at a density of 7×10^5 cells per 60 millimeter tissue culture dish in […] medium containing 10% FBS. The medium was changed to RPMI or DME medium containing 10% charcoal-stripped serum 24 hours later to deplete cellular androgens or estrogens. After another 24 hours, treatment with the test compounds began. The test dose of ASC-J9 was 1, and 5 and micromolar. LNCap cells also received dihydrotestosterone (DHT) (3 nanomolar). Control cells received a corresponding amount of the vehicle, dimethylsulfoxide (DMSO) (<0.04%) for an equivalent exposure time. Cells were incubated with ASC-J9 for 24 hours, and were lysed in 250 microliters of 1×SDS/PAGE loading buffer. Approximately 40 micrograms of total cellular protein was loaded in each lane of a pre-cast gel (NuPAGE, Invitrogen). Protein separation and transfer were performed following the manufacturer's instructions.
For the LNCaP cell lysates, androgen receptor (AR) protein was visualized by incubating the resultant membranes with an anti-AR antibody (BD-PharMingen), followed by chemiluminescence detection (ECL Plus, Amersham). […] The resultant protein signals were quantified using densitometry and NIH ImageJ software.
A general note: In western blotting, separated proteins are transferred to a membrane and probed.

For a further assay, the system named is skin wounds. Briefly: Skin wound healing in Balb/c mice. The following applies: cream 25 uM twice per day. The assay is classed as in vivo. How it is done:
The ability of ASC-J9 to hasten wound healing in an animal model was tested using Balb/c mice. Using a skin puncher, wounds were created near the back of the neck region on retired male breeder Balb/c mice. Mice were treated with either an ASC-J9 cream (25 uM) or a vehicle control cream twice per day topically at the wound site.

Assay [2] has as its target T1, androgen receptor (AR). Briefly: AR degradation in LNCaP cells in the presence of cycloheximide (Western blot). It counts as cell-based. The following applies: 20 micromolar, cycloheximide 15 micrograms/milliter. How it is done:
To determine whether the observed reduction of AR protein levels was due to protein degradation rather than inhibition of AR protein synthesis, a second set of three replicate experiments was performed. In these experiments, the protein synthesis inhibitor cycloheximide (CHX) was used to prevent the cells from synthesizing new proteins. In the absence of new AR protein synthesis, any alterations in AR levels would be mainly attributable to protein degradation. LNCaP cells were cultured in the presence and absence of ASC-J9 (20 micromolar) and in the presence and absence of cycloheximide (15 micrograms/milliter). Cells were then incubated for 0, 3, 6 and 12 hours before harvesting and analysis of AR levels by Western blot.

The subject of the next assay is sebaceous glands. In words: Reduction of sebaceous glands in Fuzzy rats, topical cream. It counts as in vivo. How it is done:
Topical creams were prepared as later described in EXAMPLE 12. […] The test or control creams were applied using a cotton swab to the dorsal skin of the animal, once daily, over a period of 8 weeks. Animals were then sacrificed and skin samples collected for microscopic examination. Commercial hair remover was applied to the dorsal surface of the euthanized animals. After 5 minutes, the hair remover and hairs were removed with a tissue. The area was thoroughly cleaned with 75% isopropyl alcohol. A 4-millimeter skin punch was used to remove skin tissue samples, which were incubated for 2 to 3 hours in a ethylenediaminetetraacetate (EDTA, 17 millimolar), sodium phosphate (0.1 molar, pH 7.4) solution at 37 degrees Celsius. The epidermis was carefully separated from the dermis and stored in 10% phosphate-buffered formalin. Prior to microscopic examination, the samples were mounted on glass slides. Areas of well-preserved glandular lobules were selected for microscopic imaging. Edges of the glandular lobes were traced and the areas of the traced lobes obtained with Image J software (National Institutes of Health).

Turning to `COc1ccc(C=CC(=O)C=C(O)C=Cc2ccc(OC)c(OC)c2)cc1OC` [ASC-J9, 5-hydroxy-1,7-bis(3,4-dimethoxyphenyl)-1,4,6-heptatrien-3-one], the “cellular concentration of AR” value at androgen receptor (AR) [1] is reported as “significantly decreased”. The wound size entry with skin wounds (day 5, vs vehicle) is listed as “smaller wound size”. Moreover, the wound healing entry in the assay on skin wounds (day 10) is recorded as “completely healed”. At androgen receptor (AR) [2], the “time within which degradation of existing AR protein was enhanced” value was not above 4 h. Besides, the “size of ducts of sebaceous glands” value in the assay on sebaceous glands (male Fuzzy rats, topical (FIG. 10E), comparable to castration, better than flutamide) is reported as “significantly reduced the size of ducts”. For the same molecule, the “size of the sebaceous gland” value in the assay on sebaceous glands (male rats, topical, 200 μM (FIG. 10A-C), not to the extent caused by castration) was “significant reduction in the size of the sebaceous gland”. Besides, the “time to reduction of brown skin color and bands of sebaceous glands” value in the assay on sebaceous glands (topical cream 25 micromolar, once daily) was 4-5 weeks. Further, in the assay on sebaceous glands (topical, various concentrations (FIG. 10D), less than castration, better than flutamide), the “size of the sebaceous glandular lobe” value was “significant reduction in the size of the sebaceous glandular lobe”.

(Values after US9446127B2, “Compositions including androgen receptor degradation (ARD) enhancers and methods of prophylactic or therapeutic treatment of skin disorders and hair loss” (AndroScience Corporation, priority 2007, dated 2016).)
